What was measured:
Src = Src (Homo sapiens, UniProt P12931); assay: Kinase activity assay, Src
A-Raf = target: T1, A-Raf (Homo sapiens, UniProt P10398); assay: Kinase activity assay, A-Raf
T1 sequence (P10398 1-606): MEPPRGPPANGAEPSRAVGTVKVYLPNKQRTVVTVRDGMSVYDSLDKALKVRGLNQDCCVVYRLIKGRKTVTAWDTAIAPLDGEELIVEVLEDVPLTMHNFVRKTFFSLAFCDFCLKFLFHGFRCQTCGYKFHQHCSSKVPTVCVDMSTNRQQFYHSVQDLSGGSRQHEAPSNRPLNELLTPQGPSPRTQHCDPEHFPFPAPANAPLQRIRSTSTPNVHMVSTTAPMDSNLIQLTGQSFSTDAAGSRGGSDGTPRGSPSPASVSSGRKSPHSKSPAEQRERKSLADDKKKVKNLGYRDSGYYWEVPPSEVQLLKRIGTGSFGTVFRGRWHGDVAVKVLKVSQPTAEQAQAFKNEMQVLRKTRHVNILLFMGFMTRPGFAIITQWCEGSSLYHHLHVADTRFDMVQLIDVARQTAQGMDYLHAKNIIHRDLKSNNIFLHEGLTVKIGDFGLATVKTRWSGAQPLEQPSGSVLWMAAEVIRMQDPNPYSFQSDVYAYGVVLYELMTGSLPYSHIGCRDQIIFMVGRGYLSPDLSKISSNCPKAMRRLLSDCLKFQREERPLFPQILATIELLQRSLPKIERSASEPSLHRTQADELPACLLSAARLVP

C-Raf = C-Raf (Homo sapiens, UniProt P04049); assay: Kinase activity assay, C-Raf
B-Raf V600E = B-Raf V600E (Homo sapiens, UniProt P15056, V600E); assay: Kinase activity assay, B-Raf V600E; assay type: biochemical; conditions: read-out: activity toward kinase B-Raf V600E, IC50
B-Raf = B-Raf (Homo sapiens, UniProt P15056); assay: Kinase activity assay, B-Raf; assay type: biochemical; conditions: read-out: activity toward kinase B-Raf, IC50
Kit = Kit (Homo sapiens, UniProt P10721); assay: Kinase activity assay, Kit
Kdr = Kdr (Homo sapiens, UniProt P35968); assay: Kinase activity assay, Kdr

Measured: IC50

Chain of C-Raf (P04049 whole entry): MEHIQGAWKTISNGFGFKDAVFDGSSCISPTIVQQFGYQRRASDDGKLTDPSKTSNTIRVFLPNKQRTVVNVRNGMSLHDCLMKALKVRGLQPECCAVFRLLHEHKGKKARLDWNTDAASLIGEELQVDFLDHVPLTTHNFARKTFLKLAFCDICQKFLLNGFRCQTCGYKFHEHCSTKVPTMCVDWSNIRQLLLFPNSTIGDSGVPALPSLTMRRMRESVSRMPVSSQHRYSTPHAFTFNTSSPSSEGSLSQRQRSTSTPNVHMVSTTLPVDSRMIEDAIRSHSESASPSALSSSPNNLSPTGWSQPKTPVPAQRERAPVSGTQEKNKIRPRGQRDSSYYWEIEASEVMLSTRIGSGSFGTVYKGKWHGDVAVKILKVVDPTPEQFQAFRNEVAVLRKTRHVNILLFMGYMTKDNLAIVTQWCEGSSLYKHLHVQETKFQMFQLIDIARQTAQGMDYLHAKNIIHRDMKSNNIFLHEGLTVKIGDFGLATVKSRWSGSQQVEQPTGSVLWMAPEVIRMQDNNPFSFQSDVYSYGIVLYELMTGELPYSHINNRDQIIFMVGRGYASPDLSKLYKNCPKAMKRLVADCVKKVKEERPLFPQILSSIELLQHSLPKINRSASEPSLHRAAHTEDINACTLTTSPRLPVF
Chain of Kit (P10721 26-976): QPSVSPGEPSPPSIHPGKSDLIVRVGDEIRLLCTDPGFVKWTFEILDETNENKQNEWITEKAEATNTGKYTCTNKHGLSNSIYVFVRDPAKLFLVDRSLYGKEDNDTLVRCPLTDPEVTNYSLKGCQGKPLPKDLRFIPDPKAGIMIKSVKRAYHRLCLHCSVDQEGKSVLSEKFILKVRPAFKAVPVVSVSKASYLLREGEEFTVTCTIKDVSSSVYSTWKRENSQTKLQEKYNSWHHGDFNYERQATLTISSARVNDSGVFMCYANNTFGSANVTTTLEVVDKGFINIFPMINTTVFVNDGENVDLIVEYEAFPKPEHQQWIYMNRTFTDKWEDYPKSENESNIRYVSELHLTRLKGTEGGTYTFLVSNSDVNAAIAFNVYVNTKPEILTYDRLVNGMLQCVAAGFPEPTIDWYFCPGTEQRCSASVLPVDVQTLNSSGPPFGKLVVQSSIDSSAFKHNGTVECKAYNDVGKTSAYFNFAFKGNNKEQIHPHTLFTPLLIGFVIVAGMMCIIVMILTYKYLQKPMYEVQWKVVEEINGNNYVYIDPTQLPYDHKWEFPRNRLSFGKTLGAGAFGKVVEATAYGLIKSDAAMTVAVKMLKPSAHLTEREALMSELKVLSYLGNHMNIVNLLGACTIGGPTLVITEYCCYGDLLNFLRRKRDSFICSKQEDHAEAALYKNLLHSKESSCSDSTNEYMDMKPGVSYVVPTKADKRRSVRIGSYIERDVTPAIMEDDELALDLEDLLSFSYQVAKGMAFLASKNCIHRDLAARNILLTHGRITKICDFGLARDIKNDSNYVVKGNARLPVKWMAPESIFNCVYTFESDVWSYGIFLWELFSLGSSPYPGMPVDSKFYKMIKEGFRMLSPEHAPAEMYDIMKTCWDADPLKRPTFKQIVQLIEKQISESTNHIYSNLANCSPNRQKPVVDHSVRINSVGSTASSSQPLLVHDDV
Chain of Kdr (P35968 20-1356): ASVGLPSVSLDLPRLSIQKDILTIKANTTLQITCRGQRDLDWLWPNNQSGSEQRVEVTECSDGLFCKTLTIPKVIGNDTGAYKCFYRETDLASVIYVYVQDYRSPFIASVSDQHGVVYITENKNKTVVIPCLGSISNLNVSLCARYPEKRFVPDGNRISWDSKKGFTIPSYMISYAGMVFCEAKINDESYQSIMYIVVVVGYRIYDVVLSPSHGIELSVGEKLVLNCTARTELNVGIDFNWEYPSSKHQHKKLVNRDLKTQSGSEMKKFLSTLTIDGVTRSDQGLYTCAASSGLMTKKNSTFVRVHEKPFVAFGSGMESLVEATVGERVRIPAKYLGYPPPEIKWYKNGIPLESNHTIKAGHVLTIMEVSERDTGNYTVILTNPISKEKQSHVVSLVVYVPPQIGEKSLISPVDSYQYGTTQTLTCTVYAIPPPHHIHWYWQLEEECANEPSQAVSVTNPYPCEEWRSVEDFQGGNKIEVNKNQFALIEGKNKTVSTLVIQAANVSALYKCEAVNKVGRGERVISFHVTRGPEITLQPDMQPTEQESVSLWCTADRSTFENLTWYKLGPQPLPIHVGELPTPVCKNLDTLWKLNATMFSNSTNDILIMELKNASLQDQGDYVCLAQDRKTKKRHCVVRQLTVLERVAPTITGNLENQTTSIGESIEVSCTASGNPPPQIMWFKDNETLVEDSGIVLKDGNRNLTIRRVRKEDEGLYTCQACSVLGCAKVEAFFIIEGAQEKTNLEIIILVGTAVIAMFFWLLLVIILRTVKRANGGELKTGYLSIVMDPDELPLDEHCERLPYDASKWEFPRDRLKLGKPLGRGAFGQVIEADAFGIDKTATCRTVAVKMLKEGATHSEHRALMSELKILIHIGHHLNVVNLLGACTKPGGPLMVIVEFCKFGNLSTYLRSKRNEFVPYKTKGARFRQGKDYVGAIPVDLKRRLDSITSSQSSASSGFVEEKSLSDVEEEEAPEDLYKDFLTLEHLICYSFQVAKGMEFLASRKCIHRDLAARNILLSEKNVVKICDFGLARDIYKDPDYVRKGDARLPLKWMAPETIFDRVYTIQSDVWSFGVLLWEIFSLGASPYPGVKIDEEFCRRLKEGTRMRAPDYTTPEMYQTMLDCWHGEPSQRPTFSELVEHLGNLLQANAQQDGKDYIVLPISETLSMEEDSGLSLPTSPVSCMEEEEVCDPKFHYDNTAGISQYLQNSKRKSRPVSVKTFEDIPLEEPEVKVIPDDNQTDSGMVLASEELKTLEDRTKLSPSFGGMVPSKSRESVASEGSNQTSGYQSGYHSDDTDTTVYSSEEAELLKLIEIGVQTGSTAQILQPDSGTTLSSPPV
Chain of B-Raf V600E (P15056 whole entry V600E): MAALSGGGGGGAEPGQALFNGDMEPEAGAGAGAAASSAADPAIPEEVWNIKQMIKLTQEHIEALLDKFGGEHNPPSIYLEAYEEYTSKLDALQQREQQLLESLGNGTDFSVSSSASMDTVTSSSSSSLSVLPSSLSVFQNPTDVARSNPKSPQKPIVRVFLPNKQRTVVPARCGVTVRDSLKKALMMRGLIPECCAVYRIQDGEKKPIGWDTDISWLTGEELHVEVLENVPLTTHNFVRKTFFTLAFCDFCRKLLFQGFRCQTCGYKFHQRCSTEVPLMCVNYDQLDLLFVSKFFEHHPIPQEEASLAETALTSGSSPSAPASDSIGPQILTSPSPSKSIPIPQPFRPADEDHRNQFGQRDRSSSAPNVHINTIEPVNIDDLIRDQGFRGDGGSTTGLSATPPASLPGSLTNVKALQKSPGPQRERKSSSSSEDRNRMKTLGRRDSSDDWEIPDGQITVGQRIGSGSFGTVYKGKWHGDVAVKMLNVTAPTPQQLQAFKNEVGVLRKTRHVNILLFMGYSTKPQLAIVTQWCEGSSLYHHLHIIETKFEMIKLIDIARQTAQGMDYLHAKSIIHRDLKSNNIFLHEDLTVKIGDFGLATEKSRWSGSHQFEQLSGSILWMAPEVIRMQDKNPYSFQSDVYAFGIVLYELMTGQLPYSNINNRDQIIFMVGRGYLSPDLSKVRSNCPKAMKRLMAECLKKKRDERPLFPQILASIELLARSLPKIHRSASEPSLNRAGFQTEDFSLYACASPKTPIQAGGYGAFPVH
Chain of Src (P12931 whole entry): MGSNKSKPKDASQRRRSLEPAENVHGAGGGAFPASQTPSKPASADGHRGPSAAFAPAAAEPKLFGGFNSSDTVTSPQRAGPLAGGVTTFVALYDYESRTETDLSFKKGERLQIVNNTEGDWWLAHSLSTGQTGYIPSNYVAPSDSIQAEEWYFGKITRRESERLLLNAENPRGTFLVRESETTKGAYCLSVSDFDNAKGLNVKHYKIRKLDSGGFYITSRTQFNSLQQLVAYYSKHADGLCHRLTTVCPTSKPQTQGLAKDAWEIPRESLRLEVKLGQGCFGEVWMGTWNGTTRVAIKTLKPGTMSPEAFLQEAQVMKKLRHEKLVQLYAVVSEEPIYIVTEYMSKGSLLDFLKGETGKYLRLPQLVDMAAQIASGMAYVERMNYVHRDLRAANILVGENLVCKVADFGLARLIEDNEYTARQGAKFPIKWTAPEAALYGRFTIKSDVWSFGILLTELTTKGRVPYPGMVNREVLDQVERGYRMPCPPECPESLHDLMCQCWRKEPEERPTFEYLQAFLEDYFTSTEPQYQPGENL
Chain of B-Raf (P15056 whole entry): as the sequence (P15056 whole entry V600E) above, with E600V counted along it

N#Cc1ccnc2[nH]cc(C(=O)c3c(F)ccc(NS(=O)(=O)c4cccc(F)c4)c3F)c12 [P-2039, N-[3-(4-Cyano-1H-pyrrolo[2,3-b]pyridine-3-carbonyl)-2,4-difluoro-phenyl]-3-fluoro-benzenesulfonamide]
not listed: Kdr
≤ 10 µM: all other assays above

CC(C)CS(=O)(=O)Nc1ccc(F)c(C(=O)c2c[nH]c3nccc(Cl)c23)c1F [P-2318, 2-Methyl-propane-1-sulfonic acid [3-(4-chloro-1H-pyrrolo[2,3-b]pyridine-3-carbonyl)-2,4-difluoro-phenyl]-amide]
not listed: Kdr
≤ 10 µM: all other assays above

CCC(C)S(=O)(=O)Nc1ccc(F)c(C(=O)c2c[nH]c3nccc(Cl)c23)c1F (centres unmarked) [P-2319, Butane-2-sulfonic acid [3-(4-chloro-1H-pyrrolo[2,3-b]pyridine-3-carbonyl)-2,4-difluoro-phenyl]-amide]
not listed: B-Raf
≤ 10 µM: all other assays above

Cc1cnc2[nH]cc(C(=O)c3c(F)ccc(NS(=O)(=O)C4CCCC4)c3F)c2c1 [P-2365, Cyclopentanesulfonic acid [2,4-difluoro-3-(5-methyl-1H-pyrrolo[2,3-b]pyridine-3-carbonyl)-phenyl]-amide]
not listed: B-Raf
≤ 10 µM: all other assays above

CCN(CC)S(=O)(=O)Nc1ccc(F)c(C(=O)c2c[nH]c3ncc(Cl)cc23)c1F [P-2384, N,N-diethylamino-sulfonic acid [3-(5-chloro-1H-pyrrolo[2,3-b]pyridine-3-carbonyl)-2,4-difluoro-phenyl]-amide]
not listed: C-Raf | B-Raf
≤ 10 µM: all other assays above

CCN(CC)S(=O)(=O)Nc1ccc(F)c(C(=O)c2c[nH]c3ncc(OC)cc23)c1F [P-2389, N,N-diethylamino-sulfonic acid [2,4-difluoro-3-(5-methoxy-1H-pyrrolo[2,3-b]pyridine-3-carbonyl)-phenyl]-amide]
not listed: C-Raf | B-Raf
≤ 10 µM: all other assays above

COc1cnc2[nH]cc(C(=O)c3c(F)ccc(NS(=O)(=O)N4CCOCC4)c3F)c2c1 [P-2391, Morpholine-4-sulfonic acid [2,4-difluoro-3-(5-methoxy-1H-pyrrolo[2,3-b]pyridine-3-carbonyl)-phenyl]-amide]
not listed: B-Raf | Kdr
≤ 10 µM: all other assays above

Cc1cnc2[nH]cc(C(=O)c3c(F)ccc(NS(=O)(=O)N4CCOCC4)c3F)c2c1 [P-2392, Morpholine-4-sulfonic acid [2,4-difluoro-3-(5-methyl-1H-pyrrolo[2,3-b]pyridine-3-carbonyl)-phenyl]-amide]
not listed: B-Raf | Kdr
≤ 10 µM: all other assays above

Reference: US20120122860A1, “SOLID FORMS OF SULFONAMIDES AND AMINO ACIDS” (Plexxikon, Inc., priority 2009, published 2012)
